Measurements from PubChem BioAssay AID1963972 (Molecular Pharmacology Branch, DTP, NCI, 2024).
pIC50: −log10 of the molar value.

Test system: 945468-187-T-J2-PDC spheroids viability
Assay: Anticancer human tumor 945468-187-T-J2-PDC patient-derived rectal carcinoma cell line growth inhibition [PI3K]
Details: spheroids with HUVEC and MSC; for pIC50: curve of first compound; for viability, T/C: stronger effect = lower value
Method in brief: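 Targeted small molecules plus PI3K inhibitors, half-log dose series from Cmax (default top 10 microM), were applied to heterotypic spheroids of cancer cells with HUVEC and MSCs. Viability indicated growth inhibition.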
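Also: spheroids exposed to compounds for seven days before reading.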

SMILES: CC(C)n1nc(-c2ccc3oc(N)nc3c2)c2c(N)ncnc21 + CC(Nc1ccc2c(c1)OCCn1cc(N3C(=O)OCC3C(F)F)nc1-2)C(N)=O
- pIC50 (second compound 0.00316 µM): < 7.00
- pIC50 (second compound 0.01 µM): < 7.00
- pIC50 (second compound 0.0316 µM): < 7.00
- pIC50 (second compound 0.1 µM): < 7.00
- pIC50 (second compound 0.316 µM): 7.12
- pIC50 (second compound 1 µM): 7.57
- viability, T/C (second compound 0.00316 µM, first compound 0.000316 µM): 141%
- viability, T/C (second compound 0.00316 µM, first compound 0.001 µM): 114%
- viability, T/C (second compound 0.00316 µM, first compound 0.00316 µM): 115%
- viability, T/C (second compound 0.00316 µM, first compound 0.01 µM): 89.4%
- viability, T/C (second compound 0.00316 µM, first compound 0.0316 µM): 107%
- viability, T/C (second compound 0.00316 µM, first compound 0.1 µM): 83.7%
- viability, T/C (second compound 0.01 µM, first compound 0.000316 µM): 168%
- viability, T/C (second compound 0.01 µM, first compound 0.001 µM): 101%
- viability, T/C (second compound 0.01 µM, first compound 0.00316 µM): 108%
- viability, T/C (second compound 0.01 µM, first compound 0.01 µM): 91%
- viability, T/C (second compound 0.01 µM, first compound 0.0316 µM): 88.8%
- viability, T/C (second compound 0.01 µM, first compound 0.1 µM): 71%
- viability, T/C (second compound 0.0316 µM, first compound 0.000316 µM): 105%
- viability, T/C (second compound 0.0316 µM, first compound 0.001 µM): 85.2%
- viability, T/C (second compound 0.0316 µM, first compound 0.00316 µM): 109%
- viability, T/C (second compound 0.0316 µM, first compound 0.01 µM): 106%
- viability, T/C (second compound 0.0316 µM, first compound 0.0316 µM): 95.7%
- viability, T/C (second compound 0.0316 µM, first compound 0.1 µM): 73.4%
- viability, T/C (second compound 0.1 µM, first compound 0.000316 µM): 81%
- viability, T/C (second compound 0.1 µM, first compound 0.001 µM): 112%
- viability, T/C (second compound 0.1 µM, first compound 0.00316 µM): 108%
- viability, T/C (second compound 0.1 µM, first compound 0.01 µM): 91.8%
- viability, T/C (second compound 0.1 µM, first compound 0.0316 µM): 101%
- viability, T/C (second compound 0.1 µM, first compound 0.1 µM): 61.4%
- viability, T/C (second compound 0.316 µM, first compound 0.000316 µM): 84.6%
- viability, T/C (second compound 0.316 µM, first compound 0.001 µM): 89.7%
- viability, T/C (second compound 0.316 µM, first compound 0.00316 µM): 82.2%
- viability, T/C (second compound 0.316 µM, first compound 0.01 µM): 81.5%
- viability, T/C (second compound 0.316 µM, first compound 0.0316 µM): 75.5%
- viability, T/C (second compound 0.316 µM, first compound 0.1 µM): 41.8%
- viability, T/C (second compound 1 µM, first compound 0.000316 µM): 87.4%
- viability, T/C (second compound 1 µM, first compound 0.001 µM): 103%
- viability, T/C (second compound 1 µM, first compound 0.00316 µM): 75.5%
- viability, T/C (second compound 1 µM, first compound 0.01 µM): 61.1%
- viability, T/C (second compound 1 µM, first compound 0.0316 µM): 52.6%
- viability, T/C (second compound 1 µM, first compound 0.1 µM): 29.4%
